Data published in patent publication US7022856B2, “Carboline derivatives” (LIlly Icos LLC., priority 2001, dated 2006).
pIC50: −log10 of the molar value.

Tested on: not given
Experiment: not given
Conditions: not given

| melting point | SMILES |
| --- | --- |
| 248 to 249 °C | O=C(c1ccc2ccccc2c1)N1CCc2c([nH]c3ccccc23)C1c1ccc2c(c1)OCO2 (stereo not drawn) [Example 1, 1-(2H-Benzo[d]1,3-dioxolan-5-yl)(1,2,3,4-tetrahydro-β-carbolin-2-yl)-2-naphthyl ketone] |
| 285 °C | O=C(c1ccc2ccccc2c1)N1CCc2c([nH]c3ccccc23)[C@H]1c1ccc2c(c1)OCO2 [Example 2, 1-(2H-benzo[d]1,3-dioxolan-5-yl)(1R)(1,2,3,4-tetrahydro-β-carbolin-2-yl)2-naphthyl ketone] |
| 139 to 143 °C | Cc1c(S(=O)(=O)N2CCc3c([nH]c4ccccc34)[C@H]2c2ccc3c(c2)OCO3)sc2ccc(Cl)cc12 [Example 45] |

Molecular target: T1, PDE5 (bovine aorta) (Bos taurus, UniProt Q28156)
T1 construct: from tissue; host or cells: bovine aorta
Experiment: cGMP-PDE inhibition, one-step assay, enzyme from bovine aorta
Format: biochemical
Conditions: versus bovine aorta (footnote 1)
Procedure: (§1) cGMP-PDE activity of compounds of the present invention was measured using a one-step assay adapted from Wells et al., Biochim. Biophys. Acta, 384, 430 (1975). The reaction medium contained 50 mM Tris-HCl, pH 7.5, 5 mM magnesium acetate. 250 μg/ml 5′-Nucleotidase, 1 mM EGTA, and 0.15 μM 8-[H^3]-cGMP. Unless otherwise indicated, the enzyme used was a human recombinant PDE5 (ICOS Corp., Bothell, Wash.).
(§2) Compounds of the invention were dissolved in DMSO finally present at 2% in the assay.

| pIC50 | SMILES |
| --- | --- |
| 6.36 | O=C(c1ccccc1)N1CCc2c([nH]c3ccccc23)C1c1ccc2c(c1)OCO2 (stereo not drawn) [Example 3] |
| 7.30 | CC(=O)Nc1ccc(C(=O)N2CCc3c([nH]c4ccccc34)C2c2ccc3c(c2)OCO3)cc1 (stereo not drawn) [Example 4, N-{4[1-(1-Benzo[1,3]dioxol-5-yl-1,3,4,9-tetrahydro-β-carboline-2-yl)-methanoyl]phenyl}acetamide] |
| 6.74 | O=C(c1ccc2nc[nH]c2c1)N1CCc2c([nH]c3ccccc23)C1c1ccc2c(c1)OCO2 (stereo not drawn) [Example 12, 1-(1-Benzo[1,3]dioxol-5-yl-1,3,4,9-tetrahydro-β-carbolin-2-yl)-1-(3H-benzoimidazol-5-yl)methanone] |
| 6.70 | O=C(c1cc2ccccc2s1)N1CCc2c([nH]c3ccccc23)C1c1ccc(C(F)(F)F)cc1 (stereo not drawn) [Example 14] |
| 9.00 | O=C(c1ccc(-c2ccccn2)s1)N1CCc2c([nH]c3ccccc23)C1c1ccccc1 (stereo not drawn) [Example 15] |
| 7.15 | CC(=O)Nc1ccc(C2c3[nH]c4ccccc4c3CCN2C(=O)c2cc3ccccc3s2)cc1 (stereo not drawn) [Example 16] |
| 6.60 | O=C(c1ccc(-c2ccccn2)s1)N1CCc2c([nH]c3ccccc23)C1c1ccc2c(c1)OCO2 (stereo not drawn) [Example 17] |

Molecular target: T2, human recombinant PDE5 (Homo sapiens, UniProt O76074)
T2 construct: host or cells: Saccharomyces cerevisiae strain BJ2-54 (ATCC 74465)
Experiment: cGMP-PDE inhibition, one-step assay with human recombinant PDE5
Format: biochemical
Conditions: 0.15 μM 8-[H3]-cGMP, 30 min
Procedure: The compounds of structural formula (I) were tested for an ability to inhibit PDE5. The ability of a compound to inhibit PDE5 activity is related to the IC50 value for the compound, i.e., the concentration of inhibitor required for 50% inhibition of enzyme activity. The IC50 value for compounds pounds of structural formula (I) were determined using recombinant human PDE5.
Recombinant production of human PDE1B, PDE2, PDE4A, PDE4B, PDE4C, PDE4D, PDE5, and PDE7 was carried out similarly to that described in Example 7 of U.S. Pat. No. 5,702,936, incorporated herein by reference, except that the yeast transformation vector employed, which is derived from the basic ADH2 plasmid described in Price et al., Methods in Enzymology, 185, pp. 308–318 (1990), incorporated yeast ADH2 promoter and terminator sequences and the Saccharomyces cerevisiae host was the protease-deficient strain BJ2-54 deposited on Aug. 31, 1998 with the American Type Culture Collection, Manassas, Va., under accession number ATCC 74465. Transformed host cells were grown in 2×SC-leu medium, pH 6.2, with trace metals, and vitamins. After 24 hours, YEP medium-containing glycerol was added to a final concentration of 2×YET/3% glycerol. Approxiately 24 hr later, cells were harvested, washed, and stored at −70° C. […]
Cell pellets (29 g) were thawed on ice with an equal volume of Lysis Buffer (25 mM Tris HCl, pH 8, 5 mM MgCl2, 0.25 mM DTT, 1 mM benzamidine, and 10 μM ZnSO4). Cells were lysed in a Microfluidizer® (Microfluidics Corp.) using nitrogen at 20,000 psi. The lysate was centrifuged and filtered through 0.45 μm disposable filters. The filtrate was applied to a 150 mL column of Q SEPHAROSE® Fast-Flow (Pharmacia). The column was washed with 1.5 volumes of Buffer A (20 mM Bis-Tris Propane, pH 6.8, 1 mM MgCl2, 0.25 mM DTT, 10 μM ZnSO4) and eluted with a step gradient of 125 mM NaCl in Buffer A followed by a linear gradient of 125–1000 mM NaCl in Buffer A. Active fractions from the linear gradient were applied to a 180 mL hydroxyapatite column in Buffer B (20 mM Bis-Tris Propane (pH 6.8), 1 mM MgCl2, 0.25 mM DTT, 10 μM ZnSO4, and 250 mM KCl). After loading, the column was washed with 2 volumes of Buffer B and eluted with a linear gradient of 0–125 mM potassium phosphate in Buffer B. Active fractions were pooled, precipitated with 60% ammonium sulfate, and resuspended in Buffer C (20 mM Bis-Tris Propane, pH 6.8, 125 mM NaCl, 0.5 mM DTT, and 10 μM ZnSO4). The pool was applied to a 140 mL column of SEPHACRYL® S-300 HR and eluted with Buffer C. Active fractions were diluted to 50% glycerol and stored at −20° C.
as §1, §2

| pIC50 | SMILES |
| --- | --- |
| 6.25 | O=C(c1ccc2ccccc2c1)N1CCc2c([nH]c3ccccc23)C1c1ccc2c(c1)OCO2 (stereo not drawn) [Example 1, 1-(2H-Benzo[d]1,3-dioxolan-5-yl)(1,2,3,4-tetrahydro-β-carbolin-2-yl)-2-naphthyl ketone] |
| 6.15 | O=C(c1ccc2ccccc2c1)N1CCc2c([nH]c3ccccc23)[C@H]1c1ccc2c(c1)OCO2 [Example 2, 1-(2H-benzo[d]1,3-dioxolan-5-yl)(1R)(1,2,3,4-tetrahydro-β-carbolin-2-yl)2-naphthyl ketone] |
| 6.66 | Cc1c(S(=O)(=O)N2CCc3c([nH]c4ccccc34)[C@H]2c2ccc3c(c2)OCO3)sc2ccc(Cl)cc12 [Example 45] |
| 6.11 | c1cnc(N2CCc3c([nH]c4ccccc34)C2c2ccc3c(c2)OCO3)nc1 (stereo not drawn) [Example 50] |
| 7.52 | c1ccc(-c2ccnc(N3CCc4c([nH]c5ccccc45)C3c3ccc4c(c3)OCO4)n2)cc1 (stereo not drawn) [Example 51] |
| 6.54 | c1ccc(-c2ccnc(N3CCc4c([nH]c5ccccc45)C3c3ccccc3)n2)cc1 (stereo not drawn) [Example 52] |
| 7.15 | Clc1nc(N2CCc3c([nH]c4ccccc34)C2c2ccc3c(c2)OCO3)c2nc[nH]c2n1 (stereo not drawn) [Example 53] |
| 6.25 | CN1CCN(c2nccc(N3CCc4c([nH]c5ccccc45)C3c3ccc4c(c3)OCO4)n2)CC1 (stereo not drawn) [Example 54] |
| 7.70 | c1ccc(-c2nccc(N3CCc4c([nH]c5ccccc45)C3c3ccc4c(c3)OCO4)n2)cc1 (stereo not drawn) [Example 55] |
| 7.40 | c1csc(-c2nccc(N3CCc4c([nH]c5ccccc45)C3c3ccc4c(c3)OCO4)n2)c1 (stereo not drawn) [Example 56] |
| 7.22 | c1ccc2c3c([nH]c2c1)C(c1ccc2c(c1)CCO2)N(c1ccnc(-n2ccnc2)n1)CC3 (stereo not drawn) [Example 57] |
| 7.52 | c1ccc(-c2ccnc(N3CCc4c([nH]c5ccccc45)C3c3ccc4c(c3)CCO4)n2)cc1 (stereo not drawn) [Example 58] |
| 7.40 | c1cncc(-c2ccnc(N3CCc4c([nH]c5ccccc45)C3c3ccc4c(c3)CCO4)n2)c1 (stereo not drawn) [Example 59] |
| 7.15 | c1ccc2c3c([nH]c2c1)C(c1ccc2c(c1)CCO2)N(c1nccc(-n2ccnc2)n1)CC3 (stereo not drawn) [Example 60] |
| 7.40 | c1cncc(-c2nccc(N3CCc4c([nH]c5ccccc45)C3c3ccc4c(c3)CCO4)n2)c1 (stereo not drawn) [Example 61] |
| 7.30 | c1csc(-c2nccc(N3CCc4c([nH]c5ccccc45)C3c3ccc4c(c3)CCO4)n2)c1 (stereo not drawn) [Example 62] |
| 7.40 | Cc1nccn1-c1nccc(N2CCc3c([nH]c4ccccc34)C2c2ccc3c(c2)CCO3)n1 (stereo not drawn) [Example 63] |
| 6.12 | c1ccc2c3c([nH]c2c1)C(c1ccc2c(c1)CCO2)N(c1ccnc(N2CCCCC2)n1)CC3 (stereo not drawn) [Example 64] |
| 7.70 | c1ccc2c3c([nH]c2c1)C(c1ccc2c(c1)CCO2)N(c1cc(-n2ccnc2)ncn1)CC3 (stereo not drawn) [Example 65] |
| 6.47 | c1coc(-c2ccnc(N3CCc4c([nH]c5ccccc45)C3c3ccc4c(c3)CCO4)n2)c1 (stereo not drawn) [Example 66] |
| 7.15 | c1coc(-c2nccc(N3CCc4c([nH]c5ccccc45)C3c3ccc4c(c3)CCO4)n2)c1 (stereo not drawn) [Example 67] |

| pIC50 | SMILES |
| --- | --- |
| 7.70 | Cc1nccn1-c1cc(N2CCc3c([nH]c4ccccc34)C2c2ccc3c(c2)CCO3)ncn1 (stereo not drawn) [Example 68] |
| 8.05 | c1cncc(-c2nccc(N3CCc4c([nH]c5ccccc45)C3c3ccc4c(c3)CCO4)n2)c1 (stereo not drawn) [Example 69] |
| 7.70 | CN(C)CCOc1ccc(-c2ccnc(N3CCc4c([nH]c5ccccc45)C3c3ccc4c(c3)CCO4)n2)cc1 (stereo not drawn) [Example 70] |
| 7.70 | Cc1ncn(-c2cc(N3CCc4c([nH]c5ccccc45)C3c3ccc4c(c3)CCO4)ncn2)c1C (stereo not drawn) [Example 71] |
| 8.00 | Oc1ccc(-c2ccnc(N3CCc4c([nH]c5ccccc45)C3c3ccc4c(c3)CCO4)n2)cc1 (stereo not drawn) [Example 72] |
| 7.52 | Cc1ncn(-c2nccc(N3CCc4c([nH]c5ccccc45)C3c3ccc4c(c3)CCO4)n2)c1C (stereo not drawn) [Example 73] |
| 7.40 | Cc1cn(-c2ccnc(N3CCc4c([nH]c5ccccc45)C3c3ccc4c(c3)CCO4)n2)cn1 (stereo not drawn) [Example 74] |
| 8.15 | c1ccc(-c2cc(N3CCc4c([nH]c5ccccc45)C3c3ccc4c(c3)CCO4)ncn2)cc1 (stereo not drawn) [Example 75] |
| 8.00 | Cc1cn(-c2cc(N3CCc4c([nH]c5ccccc45)C3c3ccc4c(c3)CCO4)ncn2)cn1 (stereo not drawn) [Example 76] |
| 8.40 | c1cncc(-c2cc(N3CCc4c([nH]c5ccccc45)C3c3ccc4c(c3)CCO4)ncn2)c1 (stereo not drawn) [Example 77] |
| 7.22 | Cc1nccn1-c1ccnc(N2CCc3c([nH]c4ccccc34)C2c2ccc3c(c2)CCO3)n1 (stereo not drawn) [Example 78] |
| 8.40 | COc1ccc(-c2cc(N3CCc4c([nH]c5ccccc45)C3c3ccc4c(c3)CCO4)ncn2)cc1 (stereo not drawn) [Example 79] |
| 7.30 | Oc1ccc(-c2cc(N3CCc4c([nH]c5ccccc45)C3c3ccc4c(c3)CCO4)ncn2)cc1 (stereo not drawn) [Example 80] |
| 8.52 | CC(=O)Oc1ccc(-c2cc(N3CCc4c([nH]c5ccccc45)C3c3ccc4c(c3)CCO4)ncn2)cc1 (stereo not drawn) [Example 81] |
| 8.30 | CN(C)CCOc1ccc(-c2cc(N3CCc4c([nH]c5ccccc45)C3c3ccc4c(c3)CCO4)ncn2)cc1 (stereo not drawn) [Example 82] |
| 7.09 | Cc1ccc(C2c3[nH]c4ccccc4c3CCN2C(=O)c2cc3ccccc3s2)cc1 (stereo not drawn) [Example 83] |
| 6.51 | O=C(c1cc2ccccc2s1)N1CCc2c([nH]c3ccccc23)C1c1ccc2c(c1)OCO2 (stereo not drawn) [Example 84] |
| 6.08 | O=C(c1cc2ccccc2s1)N1CCc2c([nH]c3ccccc23)C1c1cccc(Cl)c1 (stereo not drawn) [Example 85] |
| 6.05 | O=C(c1cc2ccccc2s1)N1CCc2c([nH]c3ccccc23)C1c1ccccc1 (stereo not drawn) [Example 86] |
| 6.00 | c1ccc2c3c([nH]c2c1)C(c1ccc2c(c1)OCO2)N(c1nccc(N2CCOCC2)n1)CC3 (stereo not drawn) [Example 87] |
